Measured values published in patent publication EP2216341A1, “Transferrin variants and conjugates” (Novozymes Biopharma UK Limited, priority 2009, dated 2010).

What was measured:
[1] = target: T1, transferrin receptor 1 (TfR1) (Homo sapiens, UniProt P02786); assay: Transferrin receptor 1 binding by Surface Plasmon Resonance (SPR, Biacore); details: fluorescein conjugated sample
T1 construct: purchased AbD Serotec 9110-300
Source text: The receptor binding capability of the recombinant transferrin variants can be determined by Surface Plasmon Resonance (SPR) analysis. The binding activity of a transferrin sample to a transferrin receptor can be measured using surface plasmon resonance (SPR) a non-invasive optical technique in which the SPR response is a measure of change in mass concentration at the detector surface as molecules bind or dissociate. A sample is sent onto the surface of the sensor chip via a micro flow system at a constant flow rate. In this analysis, if the transferrin sample is able to bind to the Transferrin Receptor the mass on the surface sensor chip is increased due to binding between Transferrin Receptor and Transferrin molecules creating a surface plasmon wave, and a shift of the SPR signal proportional to the binding quantity can be detected as a change in the resonance unit (RU). […]
The binding capacity of human serum transferrin to human trabnsferrin receptor 1 may be measured by SPR. […]
The receptor binding capability of the recombinant transferrin variants was assessed by Surface Plasmon Resonance (SPR) analysis. The binding activity of a transferrin sample to transferrin receptor can be measured using surface plasmon resonance (SPR) a non-invasive optical technique in which the SPR response is a measure of change in mass concentration at the detector surface as molecules bind or dissociate. […]

[2] = system: K562 erythroleukemic cells; assay: 55Fe uptake from labeled diferric transferrin in erythroleukemic K562 cells; format: cell-based, human; details: 25 minutes at 37°C
Description: Human plasma-derived apo-transferrin (Calbiochem 616419, tissue culture grade, pyrogen-free) is supplied lyophilised from 10mM phosphate buffer, pH7.4. The transferrin mutein is expressed, purified and quantified as described above.
For iron-55 uptake from labeled diferric transferrin, K562 erythroleukemic cells, cultured in RPMI cell culture medium under standard conditions (bicarbonate-buffered, 5% (v/v) CO2, antibiotics, 10% (v/v) fetal calf serum) are washed with serum-free medium containing HEPES-buffer and 1 mg/ml of bovine serum albumin and used at a concentration of 10 million cells/ml in this medium. The samples tested are prepared as equimolar concentrations of apo-transferrin mutein. Apo-transferrin mutein is loaded with iron according to a standard procedure (Bates and Schlabach, J Biol Chem, 248, 3228-3232, 1973) using ferric nitrilotriacetate as iron source. Typically 50µl of 1 M NaClO4 is added to 450µl of the transferrin mutein stock-solution (pH is alkaline to neutral). The ^55Fe -NTA-loading-buffer is prepared by mixing 8.5µl 50mM NTA (pH 8.25), 18.9µl 0.1M Tris, 98.8µl Millipore-purified water and 7.5µl ^55FeCl3 in 0.5 N HCl (NEN products). 500µl of transferrin mutein is carefully mixed (dropwise) with the ^55Fe -NTA-loading-buffer and then 310µl of 5mM Hepes. NaOH/0.1M NaClO4 is added. The mixture is incubated at 4°C for 60 min following which it is deslated on a PD-10 column (containing Sephadex G-25) and dialysed. The PD-10 column is equilibrated with 5ml of equilibration buffer (5mM Hepes/NaOH, 0.1M NaClO4, 0.1 g BSA (Amresco)) then washed three times with 5ml of wash buffer (5mM Hepes/NaOH, 0.1M NaClO4). […]
Increasing concentrations of human plasma transferrin or the transferrin mutein sample (0, 25, 100, 200, 400, 800, 1600 nM), labeled with ^55Fe, are mixed with 25 µl of medium. […] The lysates are neutralized with 1 M HCl after overnight lysis, mixed with Readysolv Scintillation cocktail and counted in the Packard Liquid Scintillation Counter. […]

T1 sequence (P02786 whole entry): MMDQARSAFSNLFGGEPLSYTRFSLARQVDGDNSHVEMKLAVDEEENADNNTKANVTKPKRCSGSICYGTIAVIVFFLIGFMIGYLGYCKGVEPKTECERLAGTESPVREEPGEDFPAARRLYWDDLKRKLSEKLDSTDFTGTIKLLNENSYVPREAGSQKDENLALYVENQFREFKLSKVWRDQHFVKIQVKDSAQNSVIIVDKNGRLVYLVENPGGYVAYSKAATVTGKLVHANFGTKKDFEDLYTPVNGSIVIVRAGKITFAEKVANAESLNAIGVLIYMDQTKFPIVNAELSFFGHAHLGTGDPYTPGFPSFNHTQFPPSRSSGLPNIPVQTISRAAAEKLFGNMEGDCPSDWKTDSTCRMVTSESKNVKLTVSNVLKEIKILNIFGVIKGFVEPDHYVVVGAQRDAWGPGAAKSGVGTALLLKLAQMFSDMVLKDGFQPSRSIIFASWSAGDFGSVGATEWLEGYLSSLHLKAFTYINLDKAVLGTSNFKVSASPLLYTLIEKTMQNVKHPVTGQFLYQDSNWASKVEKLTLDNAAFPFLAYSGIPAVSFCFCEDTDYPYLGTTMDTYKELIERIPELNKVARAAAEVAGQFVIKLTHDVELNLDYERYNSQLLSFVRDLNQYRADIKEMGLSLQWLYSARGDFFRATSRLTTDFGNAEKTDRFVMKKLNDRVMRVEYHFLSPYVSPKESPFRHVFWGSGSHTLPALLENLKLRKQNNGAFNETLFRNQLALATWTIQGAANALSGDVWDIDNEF

Fluorescein conjugated thio-transferrin (S415C, T613A): thiotransferrin (S415C, T613A) conjugated with fluorescein
ability to bind to transferrin receptor 1 (measured by SPR) [1]: able to bind to transferrin receptor 1 by SPR analysis in a manner equivalent to the unconjugated sample
Specific iron ptake Bmax ([2]; 55Fe-labeled sample 0-1600 nM, specific uptake (unspecific binding with hundredfold excess unlabeled diferric transferrin accounted for)): 3246±217 fmol^55Fe/10^6 cells 25min
Total Iron Uptake Bmax ([2]; 55Fe-labeled sample 0-1600 nM, total uptake): 4165±216 fmol^55Fe/10^6 cells x 25min
Kd ([2]; specific uptake, read-out: Specific iron ptake Kd x): 189 ± 47 nM
